PubChem BioAssay (NCI)
Several values for one entry are separate records, joined by “and”; a condition that tells them apart may be missing. Equal entries are not always repeated.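 Exposure lasted 48 hours, with cells grown in 96-well plates and compounds tested at five concentrations. GI50: concentration for 50% inhibition of growth. Definition used: TGI = concentration required for complete inhibition of growth.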

Assays:
Experiment in all cases: NCI tumour cell line growth inhibition, 48 h
CCRF-CEM leukemia = system: CCRF-CEM leukemia
SK-MEL-5 melanoma = system: SK-MEL-5 melanoma
A549 NSCLC = system: A549 NSCLC
ACHN renal = system: ACHN renal
M14 melanoma = system: M14 melanoma
SK-MEL-28 melanoma = system: SK-MEL-28 melanoma
A498 renal = system: A498 renal
PC-3 prostate = system: PC-3 prostate
HCT-15 colon = system: HCT-15 colon
NCI-H460 lung = system: NCI-H460 lung
SNB-19 CNS = system: SNB-19 CNS
HS 578T breast = system: HS 578T breast
HL-60(TB) leukemia = system: HL-60(TB) leukemia
SR leukemia = system: SR leukemia
HCC-2998 colon = system: HCC-2998 colon
NCI/ADR-RES ovarian = system: NCI/ADR-RES ovarian
UO-31 renal = system: UO-31 renal
SW-620 colon = system: SW-620 colon
786-0 renal = system: 786-0 renal
HCT-116 colon = system: HCT-116 colon
U251 CNS = system: U251 CNS
SNB-75 CNS = system: SNB-75 CNS
NCI-H226 lung = system: NCI-H226 lung
COLO 205 colon = system: COLO 205 colon
CAKI-1 renal = system: CAKI-1 renal
HOP-62 NSCLC = system: HOP-62 NSCLC
HT29 colon = system: HT29 colon
RXF 393 renal = system: RXF 393 renal
BT-549 breast = system: BT-549 breast

CNC(=O)c1cc(Oc2ccc(NC(=O)Nc3cc(C(C)(C)C)nn3-c3ccc4ncccc4c3)c(F)c2)ccn1
GI50 (CCRF-CEM leukemia): 2350 nM and 2570 nM
TGI (CCRF-CEM leukemia): 8360 nM and > 31600 nM
GI50 (SK-MEL-5 melanoma): 1350 nM and 1510 nM
TGI (SK-MEL-5 melanoma): 2860 nM and 3140 nM
GI50 (A549 NSCLC): 1830 nM and 1800 nM
TGI (A549 NSCLC): 7720 nM and 6500 nM
GI50 (ACHN renal): 915 nM and 475 nM
TGI (ACHN renal): 7470 nM and > 23600 nM
GI50 (M14 melanoma): 370 nM and 395 nM
TGI (M14 melanoma): 2490 nM and 2000 nM
GI50 (SK-MEL-28 melanoma): 264 nM and 297 nM
TGI (SK-MEL-28 melanoma): 2620 nM and 2800 nM
GI50 (A498 renal): 1260 nM and 307 nM
TGI (A498 renal): 3210 nM and 2420 nM
GI50 (PC-3 prostate): 1830 nM and 1680 nM
TGI (PC-3 prostate): 6780 nM and 5170 nM
GI50 (HCT-15 colon): 2010 nM and 2350 nM
TGI (HCT-15 colon): 7300 nM and 8530 nM
GI50 (NCI-H460 lung): 2060 nM and 2040 nM
TGI (NCI-H460 lung): 8110 nM and 6930 nM
GI50 (SNB-19 CNS): 3100 nM and 3090 nM
TGI (SNB-19 CNS): 8870 nM and 7980 nM
GI50 (HS 578T breast): 1140 nM and 1030 nM
TGI (HS 578T breast): 5420 nM and 5030 nM
GI50 (HL-60(TB) leukemia): 3330 nM and 2530 nM
TGI (HL-60(TB) leukemia): 6570 nM and 5800 nM
GI50 (SR leukemia): 633 nM and 497 nM
TGI (SR leukemia): 3910 nM and 3850 nM
GI50 (HCC-2998 colon): 3210 nM and 3380 nM
TGI (HCC-2998 colon): 7820 nM and 7780 nM
GI50 (NCI/ADR-RES ovarian): 2650 nM and 3360 nM
TGI (NCI/ADR-RES ovarian): 8390 nM and 58400 nM
GI50 (UO-31 renal): 1620 nM and 1780 nM
TGI (UO-31 renal): 7700 nM and 6390 nM
GI50 (SW-620 colon): 3510 nM and 3160 nM
TGI (SW-620 colon): > 29600 nM
GI50 (786-0 renal): 2690 nM and 3080 nM
TGI (786-0 renal): 8130 nM and 8950 nM
GI50 (HCT-116 colon): 1410 nM and 1370 nM
TGI (HCT-116 colon): 7280 nM and 5940 nM
GI50 (U251 CNS): 2720 nM and 2330 nM
TGI (U251 CNS): 8870 nM and 7220 nM
GI50 (SNB-75 CNS): 1090 nM and 1010 nM
TGI (SNB-75 CNS): 2700 nM and 3010 nM
GI50 (NCI-H226 lung): 272 nM and 822 nM
TGI (NCI-H226 lung): 7240 nM and 4260 nM
GI50 (COLO 205 colon): 459 nM and 620 nM
TGI (COLO 205 colon): 1850 nM and 2200 nM
GI50 (CAKI-1 renal): 523 nM and 699 nM
TGI (CAKI-1 renal): 4650 nM and 4320 nM
GI50 (HOP-62 NSCLC): 2240 nM and 2200 nM
TGI (HOP-62 NSCLC): 7560 nM and 7340 nM
GI50 (HT29 colon): 520 nM and 505 nM
TGI (HT29 colon): 3650 nM and 5070 nM
GI50 (RXF 393 renal): 821 nM and 647 nM
TGI (RXF 393 renal): 2610 nM and 2050 nM
GI50 (BT-549 breast): 1080 nM and 2270 nM
TGI (BT-549 breast): 4580 nM and 5650 nM
